We go through 28 compounds from ChEMBL document CHEMBL1140358, “1-Pentyl-3-phenylacetylindoles, a new class of cannabimimetic indoles” (Bioorg Med Chem Lett, 2005).

The structures appear in SMILES notation. pEC50, pKi: −log10 of the molar value.

For assay [1], the target named is T1, Cannabinoid receptor 1 (Rattus norvegicus, UniProt P20272). Kind of assay: Binding affinity to displace [3H]CP-55940 from CB1 receptor of rat brain.
Assay [2] addresses T2, Cannabinoid receptor 2 (Homo sapiens, UniProt P34972). Kind of assay: Binding affinity to displace [3H]CP-55940 from cloned human CB2 receptor.
Assay [3] can be described thus: Ratio of the binding affinity towards CB1 receptor to that of CB2 receptor.
Assay [4] deals with T2, Cannabinoid receptor 2. Kind of assay: Effective concentration for stimulation of [35S]GTP-gamma-S, binding at CB2 receptor in presence of 3 uM CP-55940. The class given is functional. A general note: Binding of GTPγS marks nucleotide exchange on a G protein.
In assay [5] the target is T1, Cannabinoid receptor 1. Briefly: Effective concentration for stimulation of [35S]GTP-gamma-S binding at CB1 receptor in presence of 10 uM WIN-55212-2. In kind it is functional.
For assay [6], the target named is T2, Cannabinoid receptor 2. Kind of assay: Percent maximal effectiveness for stimulation of [35S]GTP-gamma-S, binding at CB2 receptor in presence of 3 uM CP-55940. In kind it is functional.

T2 sequence (P34972 whole entry): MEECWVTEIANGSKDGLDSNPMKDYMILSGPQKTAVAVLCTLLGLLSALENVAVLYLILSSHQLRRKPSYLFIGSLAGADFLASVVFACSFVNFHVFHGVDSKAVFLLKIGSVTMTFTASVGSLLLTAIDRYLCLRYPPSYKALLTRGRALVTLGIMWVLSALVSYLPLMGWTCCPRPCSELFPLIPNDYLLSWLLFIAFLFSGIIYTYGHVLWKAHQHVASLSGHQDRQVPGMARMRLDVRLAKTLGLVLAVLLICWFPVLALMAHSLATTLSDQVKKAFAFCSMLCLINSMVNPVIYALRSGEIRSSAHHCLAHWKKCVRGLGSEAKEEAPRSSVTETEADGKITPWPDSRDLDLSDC
T1 sequence (P20272 whole entry): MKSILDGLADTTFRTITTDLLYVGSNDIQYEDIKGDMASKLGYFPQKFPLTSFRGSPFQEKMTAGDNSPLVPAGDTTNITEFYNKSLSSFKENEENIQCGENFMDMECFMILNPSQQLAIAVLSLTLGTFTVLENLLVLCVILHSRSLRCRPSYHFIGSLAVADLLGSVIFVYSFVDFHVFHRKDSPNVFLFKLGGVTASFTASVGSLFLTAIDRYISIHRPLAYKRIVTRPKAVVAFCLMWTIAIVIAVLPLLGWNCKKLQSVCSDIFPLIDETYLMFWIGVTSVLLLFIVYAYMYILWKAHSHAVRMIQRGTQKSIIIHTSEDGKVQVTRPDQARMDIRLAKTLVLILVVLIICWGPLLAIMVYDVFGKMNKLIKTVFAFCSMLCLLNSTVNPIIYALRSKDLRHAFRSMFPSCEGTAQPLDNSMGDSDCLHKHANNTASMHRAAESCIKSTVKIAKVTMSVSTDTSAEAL

A word on the pKi: it is −log10 of the Ki, conventionally taken in molar units. Read a high pKi as a small Ki. For `CCCCCn1cc(C(=O)Cc2cccc(F)c2)c2ccccc21`, the results for the pKi at Cannabinoid receptor 1 [1] and at Cannabinoid receptor 2 [2] were 7.14 and 7.04, respectively. Also, the Ratio in assay [3] was 0.79.

In the case of `CCCCCn1cc(C(=O)Cc2ccc(F)cc2)c2ccccc21`, the pKi is 6.37 on Cannabinoid receptor 1 [1] and 6.44 at Cannabinoid receptor 2 [2]. Besides, the Ratio in assay [3] was determined as 1.2.

On to `CCCCCn1cc(C(=O)Cc2ccc(OC)cc2)c2ccccc21`, for which the values for the negative logarithm of the Ki (pKi) at Cannabinoid receptor 1 [1] and at Cannabinoid receptor 2 [2] were 5.97 and 6.35, respectively. Further, in assay [3], the Ratio is 2.4.

Usually pEC50 stands for the negative decadic logarithm of the EC50, by convention in mol/L. The term Emax denotes the greatest response seen or fitted, relative to the assay's reference. With `CCCCCn1cc(C(=O)Cc2cccc(OC)c2)c2ccccc21`, the results for the negative logarithm of the Ki (pKi) on Cannabinoid receptor 1 [1] and at Cannabinoid receptor 2 [2] were 7.77 and 7.05, respectively. In assay [3], the Ratio turned out to be 0.19. In addition, the values for the negative logarithm of the EC50 (pEC50) on Cannabinoid receptor 2 [4] and at Cannabinoid receptor 1 [5] were 7.61 and 7.53, respectively. Moreover, at Cannabinoid receptor 2 [6], the Emax is 33.5%.

Consider `CCCCCn1c(C)c(C(=O)Cc2cccc(Cl)c2)c2ccccc21`, for which the negative-log Ki (pKi) at Cannabinoid receptor 1 [1] was 6.93; on Cannabinoid receptor 2 [2], 6.86. Further, the Ratio in assay [3] was 0.85.

For `CCCCCn1cc(C(=O)Cc2ccc(Br)cc2)c2ccccc21`, the negative-log Ki (pKi) at Cannabinoid receptor 2 [2] was 6.18. Further, the Ratio in assay [3] amounted to 1.6.

As to `CCCCCn1cc(C(=O)Cc2ccccc2F)c2ccccc21`, the pKi on Cannabinoid receptor 1 [1] was 7.64; on Cannabinoid receptor 2 [2], 7.41. In assay [3], the Ratio came to 0.6.

Take `CCCCCn1c(C)c(C(=O)Cc2ccc(Cl)cc2)c2ccccc21`: the negative-log Ki (pKi) at Cannabinoid receptor 1 [1] was 5.80; on Cannabinoid receptor 2 [2], 5.43. For the same compound, the Ratio in assay [3] came to 0.43.

As to `CCCCCn1c(C)c(C(=O)Cc2ccccc2OC)c2ccccc21`, the pKi was 7.60 at Cannabinoid receptor 1 [1] and 7.09 at Cannabinoid receptor 2 [2]. Moreover, in assay [3], the Ratio is 0.3.

Regarding `CCCCCn1c(C)c(C(=O)Cc2cccc(OC)c2)c2ccccc21`, the pKi is 7.21 at Cannabinoid receptor 1 [1] and 7.08 at Cannabinoid receptor 2 [2]. Moreover, the Ratio in assay [3] worked out at 0.74.

As to `CCCCCn1c(C)c(C(=O)Cc2ccc(OC)cc2)c2ccccc21`, the negative logarithm of the Ki (pKi) is 5.78 at Cannabinoid receptor 1 [1] and 6.19 at Cannabinoid receptor 2 [2]. For the same compound, the Ratio in assay [3] is 2.6.

As for `CCCCCn1cc(C(=O)Cc2ccccc2Cl)c2ccccc21`, the pKi at Cannabinoid receptor 1 [1] is 8.10; on Cannabinoid receptor 2 [2], 8.15. Further, the Ratio in assay [3] amounted to 1.1.

For the compound `CCCCCn1c(C)c(C(=O)Cc2cccc(F)c2)c2ccccc21`, the values for the pKi on Cannabinoid receptor 1 [1] and on Cannabinoid receptor 2 [2] were 6.37 and 6.74, respectively. In assay [3], the Ratio amounted to 2.4.

For `CCCCCn1cc(C(=O)Cc2cccc(Cl)c2)c2ccccc21`, the pKi was 7.42 on Cannabinoid receptor 1 [1] and 6.97 at Cannabinoid receptor 2 [2]. Besides, the Ratio in assay [3] was 0.36.

Turning to `CCCCCn1c(C)c(C(=O)Cc2ccccc2F)c2ccccc21`, the figures for the pKi on Cannabinoid receptor 1 [1] and at Cannabinoid receptor 2 [2] were 7.41 and 7.12, respectively. The Ratio in assay [3] amounted to 0.51.

As to `CCCCCn1cc(C(=O)Cc2ccc(C)cc2)c2ccccc21`, the negative logarithm of the Ki (pKi) is 6.75 on Cannabinoid receptor 1 [1] and 6.24 at Cannabinoid receptor 2 [2]. Moreover, in assay [3], the Ratio came to 0.31.

Take `CCCCCn1c(C)c(C(=O)Cc2ccc(C)cc2)c2ccccc21`: the pKi on Cannabinoid receptor 1 [1] was 6.13; at Cannabinoid receptor 2 [2] it was 5.87. Also, in assay [3], the Ratio was found to be 0.55.

For the compound `CCCCCn1cc(C(=O)Cc2ccccc2C)c2ccccc21`, the pKi at Cannabinoid receptor 1 [1] is 7.54; at Cannabinoid receptor 2 [2], 6.84. Besides, the Ratio in assay [3] turned out to be 0.2. Besides, the pEC50 at Cannabinoid receptor 2 [4] is 8.08; at Cannabinoid receptor 1 [5], 7.54. Besides, the maximal effect (Emax) at Cannabinoid receptor 2 [6] worked out at 47%.

As to `CCCCCn1c(C)c(C(=O)Cc2ccccc2Cl)c2ccccc21`, the negative-log Ki (pKi) on Cannabinoid receptor 1 [1] is 7.89; at Cannabinoid receptor 2 [2] it was 7.60. The Ratio in assay [3] is 0.52.

For `CCCCCn1cc(C(=O)Cc2ccccc2OC)c2ccccc21`, the results for the negative-log Ki (pKi) at Cannabinoid receptor 1 [1] and on Cannabinoid receptor 2 [2] were 7.96 and 7.48, respectively. Further, the Ratio in assay [3] came out at 0.33.

For `CCCCCn1c(C)c(C(=O)Cc2ccccc2)c2ccccc21`, the negative-log Ki (pKi) at Cannabinoid receptor 1 [1] is 6.91; at Cannabinoid receptor 2 [2] it was 6.74. Also, in assay [3], the Ratio was found to be 0.69.

For `CCCCCn1cc(C(=O)Cc2ccccc2Br)c2ccccc21`, the negative logarithm of the Ki (pKi) at Cannabinoid receptor 1 [1] is 8.08; on Cannabinoid receptor 2 [2], 7.70. For the same compound, in assay [3], the Ratio stood at 0.42.

Take `CCCCCn1c(C)c(C(=O)Cc2ccccc2C)c2ccccc21`: the pKi on Cannabinoid receptor 1 [1] was 7.64; on Cannabinoid receptor 2 [2] it was 7.72. Also, in assay [3], the Ratio worked out at 1.2.

For `CCCCCn1c(C)c(C(=O)Cc2ccccc2Br)c2ccccc21`, the pKi was 7.82 on Cannabinoid receptor 1 [1] and 7.54 on Cannabinoid receptor 2 [2]. Moreover, the Ratio in assay [3] is 0.52.

As for `CCCCCn1c(C)c(C(=O)Cc2ccc(Br)cc2)c2ccccc21`, the negative-log Ki (pKi) on Cannabinoid receptor 2 [2] was 5.57. For the same compound, in assay [3], the Ratio came to 1.2.

For `CCCCCn1c(C)c(C(=O)Cc2ccc(F)cc2)c2ccccc21`, the figures for the pKi at Cannabinoid receptor 1 [1] and on Cannabinoid receptor 2 [2] were 5.54 and 6.11, respectively. Besides, the Ratio in assay [3] amounted to 3.7.

Turning to `CCCCCn1cc(C(=O)Cc2ccccc2)c2ccccc21`, the results for the pKi on Cannabinoid receptor 1 [1] and at Cannabinoid receptor 2 [2] were 7.05 and 6.80, respectively. In assay [3], the Ratio came to 0.57.

Take `CCCCCn1cc(C(=O)Cc2ccc(Cl)cc2)c2ccccc21`: the negative logarithm of the Ki (pKi) at Cannabinoid receptor 1 [1] is 6.41; at Cannabinoid receptor 2 [2], 6.30. The Ratio in assay [3] stood at 0.78.
